Assay [1] relates to pUC19 plasmid DNA. The following applies: in the dark; cited from earlier work.
Assay [2] concerns pSP73KB plasmid DNA. The following applies: in the dark; ref 32b; cited from earlier work.
The test system of assay [3] is 212 bp NdeI–HpaI fragment of pSP73KB DNA. The assay can be described thus: Transcription mapping of DNA adducts (T7 RNA polymerase). Format: biochemical. The following applies: in the dark; rb=0.01. As to the method:
Sequence preference of DNA adducts: Transcription mapping experiments were performed to determine the DNA binding sites for Pt complexes. The experiments were carried out using a linear 212 bp DNA fragment (sequence in Figure 9 B), randomly modified by transplatin (8), cisplatin (7), 5 or 6 in the dark or by 1 and 2 photoactivated with blue light (420 nm) at rb=0.01 (rb is defined as the number of the molecules of platinum complex coordinated per nucleotide residue), for RNA synthesis by T7 RNA polymerase (Figure 9 A, lanes 8, 7, 5, 6, 1 and 2, respectively). RNA synthesis on the template modified by the platinum complexes produced fragments of defined sizes (Figure 9 A), which indicate the sites where RNA synthesis was prematurely terminated. It should be noted that RNA synthesis by T7 RNA polymerase is prematurely terminated only due to the platinum adducts on the template strand.[23] […] The ability to bind to A and C sites is consistent with the result from AMP and CMP binding experiments (Figure S18 in the Supporting Information).
Figure 9 Inhibition of RNA synthesis by T7 RNA polymerase on the NdeI–HpaI fragment of pSP73KB plasmid DNA modified by complexes 5 or 6, cisplatin (7) or transplatin (8) in the dark, or with photoactivated 1 or 2 (420 nm light). A) Autoradiogram of a polyacrylamide (6 %)/urea (8 M) sequencing gel. […]
assayed by differential pulse polarography for free, unbound platinum.[16] The amount of platinum bound to DNA was calculated by subtracting the amount of free (unbound) platinum from the total amount of platinum present in the reaction. […]
This fragment contained T7 RNA polymerase promoter (in the upper strand close to its 3'-end). […] The fragments produced in RNA synthesis on the template modified by the platinum complexes were analysed by a 6% polyacrylamide/8M urea sequencing gel.
Quantification of DNA adducts […]
Platinum associated with DNA was assessed by flameless atomic absorption […]
Quantification of DNA interstrand cross-links […]

The test system of assay [4] is calf thymus DNA. The following applies: in the dark; ref 32b; cited from earlier work.
The test system of assay [5] is 212 bp NdeI–HpaI fragment of pSP73KB DNA. The following applies: in the dark, cited from earlier work.
In assay [6] the test system is calf thymus DNA. The following applies: in the dark; cited from earlier work.
The target in assay [7] is T1, HMGB1 protein (Homo sapiens, UniProt P09429).
T1 sequence (P09429 1-215): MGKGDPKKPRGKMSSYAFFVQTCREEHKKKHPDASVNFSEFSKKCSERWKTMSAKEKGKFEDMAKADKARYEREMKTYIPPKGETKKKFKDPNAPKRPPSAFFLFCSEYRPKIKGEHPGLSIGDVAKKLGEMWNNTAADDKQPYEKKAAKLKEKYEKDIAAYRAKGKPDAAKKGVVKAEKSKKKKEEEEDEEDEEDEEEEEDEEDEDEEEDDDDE
To be noted: in the dark; footnote a: taken from literature; cited from earlier work.

Assay [8] concerns A2780 cells. The following applies: cited from earlier work.
Assay [9] has as its system A2780cis cells. To be noted: cited from earlier work; for Resistance factor: A2780cis vs A2780.
Assay [10] has as its system A2780 cells. The experiment in a line: Constant challenge proliferation (MTT) assay, A2780. Format: cell-based, human. The following applies: conventional constant challenge proliferation assay. The source says:
(§1) It should be noted that the phototoxicity assay is not a proliferation assay.

Assay [11] has as its system A2780cis cells. The experiment in a line: Constant challenge proliferation (MTT) assay, A2780cis. The format is cell-based, human. To be noted: conventional constant challenge proliferation assay.
Source text: as §1

Details of assay [12]: method as in earlier work. The following applies: 310 K; cited from earlier work.
Assay [13] concerns A2780cis cells. The assay can be described thus: SRB proliferation assay for non-light-sensitive complexes, A2780cis. The format is cell-based, human. As to the method:
(§2) Cytotoxicity of platinum(II) precursors: To investigate the relationship between the Pt^IV diazidodihydroxido complexes and their Pt^II dichlorido analogues trans-[PtCl2(Am1)(Am2)] (where Am=amine), the cytotoxicities of complexes trans-[PtCl2(MA)(Py)] (5) and trans-[PtCl2(MA)(Tz)] (6) towards A2780 and its cisplatin resistant sub-line A2780cis were determined. The toxicity was not photoinduced, as the complexes are not photoactive. Complexes 5 and 6 are highly cytotoxic towards A2780 and A2780cis cells compared to the reported trans-Pt^II compounds.[18]–[22] Complex 5 is about three-times more cytotoxic than complex 6 towards A2780 cells. […]
(§3) Cell Culture and Proliferation Assay for Non-light-sensitive Complexes
(§4) The A2780 ovarian cell line was obtained from the ECACC (European Collection of Animal Cell Culture, Salisbury, United Kingdom). The cells were maintained in RPMI 1640 media, which was supplemented with 10% foetal calf serum, 1% L-glutamine, and 1% penicillin/streptomycin. All cells were grown at 310 K in an humidified atmosphere containing 5% CO2. Stock solutions of the Pt complexes were freshly prepared in DMSO to assist dissolution and then diluted into saline and medium (maximum final concentration of DMSO 1% and saline 6%). After plating 5000 A2780 cells per well on day 1, Pt complexes were added to the cancer cells on day 3 at concentrations ranging from 0.01 to 100 µM, depending on the preliminary activity data obtained in screening assays. Cells were exposed to the complexes for 24 h, washed with PBS, supplied with fresh medium, and allowed to grow for three doubling times (72 h), and then the protein content (proportional to cell survival) was measured using the sulforhodamine B (SRB) assay.[7] The standard errors are based on two independent experiments of three replicates each.[8]
A general note: Sulforhodamine B stains cellular protein and so reports cell mass.

In assay [14] the target is T1, HMGB1 protein. The experiment in a line: HMGB1 recognition of platinated 50 bp duplex, gel mobility shift assay. Format: binding. The following applies: 50 bp duplex modified in the dark. The source says:
HMGB1 protein recognition: The interactions of high mobility group protein B1 (HMGB1) with a 50 bp duplex DNA adducts formed by 1 or 2 under irradiation conditions and 5 or 6 in the dark were investigated using a gel mobility shift assay.
Figure 13 Recognition by HMGB1 protein of platinated DNA. Affinity of full-length HMGB1 to non-modified (control) DNA (lanes 1 and 2) or DNA modified by cisplatin (7) in the dark (lanes 3 and 4), 5 in the dark (lanes 5 and 6), 6 in the dark (lanes 7 and 8), photoactivated 1 (420 nm light, lanes 9 and 10) or photoactivated 2 (420 nm light, lanes 11 and 12). Lanes 1, 3, 5, 7, 9, 11, no protein added; lanes 2, 4, 6, 8, 10, 12, 700 ng HMGB1 added.

Assay [15] concerns A2780 cells. The assay can be described thus: SRB proliferation assay for non-light-sensitive complexes, A2780. The format is cell-based, human. To be noted: ambient light, 24 h exposure, 72 h recovery. The protocol:
as §2, §3, §4

Assay [16] relates to DNA. Also on record: method as in PMID 1827334. The following applies: ref 3a; cited from earlier work.

Structures are written as SMILES. Like-named read-outs stand apart in the source and are kept apart here. Bounds are passed on as bounds.

Data on 9 compounds can be found in paper PMC4280898, “Diazido Mixed-Amine Platinum(IV) Anticancer Complexes Activatable by Visible-Light Form Novel DNA Adducts” (Chemistry (Weinheim an Der Bergstrasse, Germany), 2013).

Regarding `N.N.[Cl][Pt+2][Cl]` [Complex 8, transplatin], the Unwinding angle in [1] is 9[25] °. Moreover, in assay [2], the Interstrand cross-link is 12[32b] %. The Sequence specificity result was “stop sites mainly at G and C” in assay [3]; “G, C[32b]” in assay [5] (ref 32b). Further, in assay [4], the “Bifunctional adducts after 24 h” value was 50[32b] %. Further, the “Pt bound after 24 h” value in assay [6] was 100[36] %. For the same compound, in [7], the HMGB1 protein recognition result is “no ^[a]”. In addition, in [8], the IC50 (usually the midpoint of a concentration-inhibition curve) is greater than 200 µM.

For `CCC(C)C[NH][Pt]([Cl])[Cl].N` (stereo not drawn) [trans-[PtCl2(NH3)(2-methyl-butylamine)]], in assay [9], the Resistance factor is on record as 5.5 and the IC50 was 9.3 µM. Also, the IC50 in assay [8] is 1.7 µM.

For `CC(C)[NH2+][Pt-2]([Cl])([Cl])[n+]1ccn(C)c1`, the Resistance factor in [9] is 0.66. The IC50 in assay [9] is 14 ± 3.5 µM; in assay [8], 21 ± 0.6 µM.

Turning to `COC(C)=N.N.[Cl][Pt][Cl]` [trans-[PtCl2(NH3)(HN=C(OCH3)CH3)]], in assay [9], the Resistance factor is recorded as 5.4 and the IC50 was 7 ± 1.3 µM. The IC50 in assay [8] was 1.3 ± 0.3 µM.

As for `Cc1cc[n+]([Pt@SP2-2]([NH3+])([Cl])[Cl])cc1` [trans-[PtCl2(NH3)(4-picoline)]], in assay [9], the Resistance factor is given as 11. For the same compound, the values for the IC50 in [9] and in assay [8] were 80 ± 5 µM and 7 ± 1 µM, respectively.

Regarding `N.N.[Cl][Pt][Cl]` [Complex 7, cis-[PtCl2(NH3)2]], the IC50 in assay [10] came out at 0.5 µM; in assay [11], 11 µM; in assay [13] (ambient light, 24 h exposure, 72 h recovery, SRB) it was 10.5 ± 0.3 µM; in assay [15] it was 1.5 ± 0.3 µM. Moreover, in [12], the “Time for binding to 5′-GMP to reach 50 %” value was 7 to 8 h. Also, the Unwinding angle in [1] is 13[25] °. The Interstrand cross-link in [2] is 6[32b] %. Moreover, the “Bifunctional adducts after 24 h” value in assay [4] was 97–99[32b] %. The Resistance factor in assay [13] (A2780cis vs A2780, SRB assay) stood at 7.0. Moreover, in [5] (ref 30c, 37), the Sequence specificity entry was “GG, (GA)[30c], [37]”. For the same compound, the HMGB1 protein recognition entry in assay [14] is “strongly bound by HMGB1”. Also, the “Pt bound after 24 h” value in [6] is 100[36] %. Moreover, the “d(ApG) 1,2-intrastrand cross-links, share of all adducts” value in assay [16] is given as 20–25%. Further, the “d(GpG) 1,2-intrastrand cross-links, share of all adducts” value in assay [16] is reported as 60–65%.

As for `C1CNCCN1.N.[Cl][Pt][Cl]` [trans-[PtCl2(NH3)(piperazine)]], the Resistance factor in [9] is reported as 8.8. The 50% inhibitory concentration (IC50) in assay [9] is 44 ± 2 µM; in assay [8], 5 ± 1 µM.

`C1CCNCC1.N.[Cl][Pt][Cl]` [trans-[PtCl2(NH3)(piperidine)]]: in assay [9], the Resistance factor was 4.0. Also, the IC50 in assay [9] was 20 ± 2 µM; in [8], 5 ± 0.7 µM.

For `CCC(C)N.N.[Cl][Pt][Cl]` (stereo not drawn) [trans-[PtCl2(NH3)(sec-butylamine)]], in [9], the Resistance factor was 7.4 and the IC50 is 15.5 µM. Moreover, the IC50 in assay [8] was 2.1 µM.
